# Experimental data as given in paper PMC4577729, “7-(Pyrazol-4-yl)-3H-imidazo[4,5-b]pyridine-based derivatives for kinase inhibition: Co-crystallisation studies with Aurora-A reveal distinct differences in the orientation of the pyrazole N1-substituent” (Bioorganic & Medicinal Chemistry Letters, 2015).
# Legend:
# Assay in all cases: Kinase selectivity profiling
# Assay type in all cases: biochemical
# MARK3 = MARK3 (Homo sapiens, UniProt P27448); details: 1 µM, assay duplicates
# Protocol: (§1) [20] Kinase selectivity profiling for compounds 7a, 7d, 14d and 14g was carried out at the International Centre for Protein Kinase Profiling, Division of Signal Transduction Therapy, University of Dundee.
# (§2) Table S1: Kinase selectivity profiling of compounds 7a and 7d in a 102-kinase panel screened at a concentration of 1 µM.
# (§3) Table S2: Kinase selectivity profiling of compounds 14d and 14g in a 105-kinase panel screened at a concentration of 1 µM.
# FGF-R1 = FGF-R1 (Homo sapiens, UniProt P11362); details: 1 µM, assay duplicates
# Sequence of FGF-R1 (P11362 22-822): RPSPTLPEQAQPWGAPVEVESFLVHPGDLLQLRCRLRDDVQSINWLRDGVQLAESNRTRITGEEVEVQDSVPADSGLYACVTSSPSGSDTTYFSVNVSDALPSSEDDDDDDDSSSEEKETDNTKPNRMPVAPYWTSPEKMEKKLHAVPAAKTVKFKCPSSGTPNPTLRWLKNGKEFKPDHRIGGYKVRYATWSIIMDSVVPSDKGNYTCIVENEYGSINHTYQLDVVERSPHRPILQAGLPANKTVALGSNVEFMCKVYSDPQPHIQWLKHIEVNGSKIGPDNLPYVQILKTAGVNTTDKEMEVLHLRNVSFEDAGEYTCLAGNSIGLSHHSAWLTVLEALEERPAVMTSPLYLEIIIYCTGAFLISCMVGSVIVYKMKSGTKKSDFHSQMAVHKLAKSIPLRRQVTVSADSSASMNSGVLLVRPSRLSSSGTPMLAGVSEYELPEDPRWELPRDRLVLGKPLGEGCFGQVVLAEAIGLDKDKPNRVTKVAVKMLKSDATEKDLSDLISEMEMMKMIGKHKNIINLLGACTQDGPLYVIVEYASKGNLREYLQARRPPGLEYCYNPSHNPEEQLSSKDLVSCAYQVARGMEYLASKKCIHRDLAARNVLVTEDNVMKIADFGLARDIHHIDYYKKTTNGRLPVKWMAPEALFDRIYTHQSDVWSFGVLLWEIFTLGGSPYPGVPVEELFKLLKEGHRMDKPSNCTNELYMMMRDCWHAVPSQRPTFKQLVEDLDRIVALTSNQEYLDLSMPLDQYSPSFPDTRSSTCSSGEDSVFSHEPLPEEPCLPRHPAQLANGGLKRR
# Protocol: as §1, §2, §3
# PAK2 = PAK2 (Homo sapiens, UniProt Q13177); details: 1 µM, assay duplicates
# Protocol: as §1, §2, §3
# IKKb = IKKb (Homo sapiens, UniProt O14920); details: 1 µM, assay duplicates
# Protocol: as §1, §2, §3
# HER4 = HER4 (Homo sapiens, UniProt Q15303); details: 1 µM, assay duplicates
# Protocol: as §1, §2, §3
# PAK4 = PAK4 (Homo sapiens, UniProt O96013); details: 1 µM, assay duplicates
# Protocol: as §1, §2, §3
# CDK2-Cyclin A = CDK2-Cyclin A (Homo sapiens, UniProt P24941); details: 1 µM, assay duplicates
# Protocol: as §1, §2, §3
# CK1 = CK1 (Homo sapiens, UniProt P48730); details: 1 µM, assay duplicates
# Protocol: as §1, §2, §3
# IKKe = IKKe (Homo sapiens, UniProt Q14164); details: 1 µM, assay duplicates
# Protocol: as §1, §2, §3
# CSK = CSK (Homo sapiens, UniProt P41240); details: 1 µM, assay duplicates
# Protocol: as §1, §2, §3
# Src = Src (Homo sapiens, UniProt P12931); details: 1 µM, assay duplicates
# Protocol: as §1, §2, §3
# RSK2 = RSK2 (Homo sapiens, UniProt P51812); details: 1 µM, assay duplicates
# Protocol: as §1, §2, §3
# PAK6 = PAK6 (Homo sapiens, UniProt Q9NQU5); details: 1 µM, assay duplicates
# Protocol: as §1, §2, §3
# ERK2 = ERK2 (Homo sapiens, UniProt P28482); details: 1 µM, assay duplicates
# Protocol: as §1, §2, §3
# MST2 = MST2 (Homo sapiens, UniProt Q13188); details: 1 µM, assay duplicates
# Protocol: as §1, §2, §3
# ERK1 = ERK1 (Homo sapiens, UniProt P27361); details: 1 µM, assay duplicates
# Protocol: as §1, §2, §3
# PKA = PKA (Homo sapiens, UniProt P17612); details: 1 µM, assay duplicates
# Protocol: as §1, §2, §3
# MSK1 = MSK1 (Homo sapiens, UniProt O75582); details: 1 µM, assay duplicates
# Protocol: as §1, §2, §3
# HIPK1 = HIPK1 (Homo sapiens, UniProt Q86Z02); details: 1 µM, assay duplicates
# Protocol: as §1, §2, §3
# p38d MAPK = p38d MAPK (Homo sapiens, UniProt O15264); details: 1 µM, assay duplicates
# Protocol: as §1, §2, §3
# AMPK = details: 1 µM, assay duplicates
# Protocol: as §1, §2, §3
# IR = IR (Homo sapiens, UniProt P06213); details: 1 µM, assay duplicates
# Protocol: as §1, §2, §3
# PLK1 = PLK1 (Homo sapiens, UniProt P53350); details: 1 µM, assay duplicates
# Protocol: as §1, §2, §3
# JNK1 = JNK1 (Homo sapiens, UniProt P45983); details: 1 µM, assay duplicates
# Protocol: as §1, §2, §3
# MLK1 = MLK1 (Homo sapiens, UniProt P80192); details: for MLK1 inhibition: 1 μM; for MLK1 % activity remaining: 1 µM, assay duplicates
# Sequence of MLK1 (P80192 whole entry): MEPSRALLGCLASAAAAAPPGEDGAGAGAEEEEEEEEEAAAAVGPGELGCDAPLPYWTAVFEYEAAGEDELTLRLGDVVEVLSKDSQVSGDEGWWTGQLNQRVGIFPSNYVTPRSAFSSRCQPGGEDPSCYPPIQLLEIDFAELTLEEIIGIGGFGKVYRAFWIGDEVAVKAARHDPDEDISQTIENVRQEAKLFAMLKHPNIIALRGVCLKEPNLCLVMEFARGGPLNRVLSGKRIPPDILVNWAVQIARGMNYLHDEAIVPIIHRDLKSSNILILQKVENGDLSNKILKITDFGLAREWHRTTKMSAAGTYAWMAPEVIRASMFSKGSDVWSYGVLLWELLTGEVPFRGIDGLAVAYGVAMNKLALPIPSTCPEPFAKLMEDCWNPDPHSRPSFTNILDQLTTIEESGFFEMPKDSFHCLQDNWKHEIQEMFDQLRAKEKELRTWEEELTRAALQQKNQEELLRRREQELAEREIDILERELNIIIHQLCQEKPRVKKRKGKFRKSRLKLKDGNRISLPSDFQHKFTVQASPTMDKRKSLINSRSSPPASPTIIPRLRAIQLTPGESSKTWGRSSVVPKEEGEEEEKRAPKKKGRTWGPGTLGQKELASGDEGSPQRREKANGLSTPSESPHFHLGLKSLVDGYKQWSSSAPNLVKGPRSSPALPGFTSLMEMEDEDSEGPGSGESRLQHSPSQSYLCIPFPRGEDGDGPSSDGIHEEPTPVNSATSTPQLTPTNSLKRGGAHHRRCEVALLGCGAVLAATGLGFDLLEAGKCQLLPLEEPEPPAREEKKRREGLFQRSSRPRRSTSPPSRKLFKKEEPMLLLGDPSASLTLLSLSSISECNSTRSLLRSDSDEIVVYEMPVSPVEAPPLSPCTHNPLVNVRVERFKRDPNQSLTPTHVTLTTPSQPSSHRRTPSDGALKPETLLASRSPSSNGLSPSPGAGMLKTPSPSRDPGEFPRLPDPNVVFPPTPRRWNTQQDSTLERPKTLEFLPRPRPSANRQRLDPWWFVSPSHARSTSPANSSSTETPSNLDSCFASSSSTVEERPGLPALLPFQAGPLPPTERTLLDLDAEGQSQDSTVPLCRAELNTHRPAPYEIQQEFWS
# Protocol: as §1, §2, §3
# EPH-A2 = EPH-A2 (Homo sapiens, UniProt P29317); details: 1 µM, assay duplicates
# Protocol: as §1, §2, §3
# GSK3b = GSK3b (Homo sapiens, UniProt P49841); details: for GSK3b % activity remaining: 1 µM, assay duplicates
# Sequence of GSK3b (P49841 whole entry): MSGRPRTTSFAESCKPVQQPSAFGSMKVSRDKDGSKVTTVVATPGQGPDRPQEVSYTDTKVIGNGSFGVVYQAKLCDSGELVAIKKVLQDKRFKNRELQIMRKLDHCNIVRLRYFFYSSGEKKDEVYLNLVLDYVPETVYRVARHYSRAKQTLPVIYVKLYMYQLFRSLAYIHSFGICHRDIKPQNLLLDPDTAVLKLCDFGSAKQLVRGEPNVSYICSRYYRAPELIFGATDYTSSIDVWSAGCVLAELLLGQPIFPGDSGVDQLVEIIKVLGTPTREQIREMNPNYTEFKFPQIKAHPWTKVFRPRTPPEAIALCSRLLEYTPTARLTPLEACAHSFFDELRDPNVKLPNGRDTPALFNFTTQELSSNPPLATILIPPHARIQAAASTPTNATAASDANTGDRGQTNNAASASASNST
# Protocol: as §1, §2, §3
# CAMKKb = CAMKKb (Homo sapiens, UniProt Q96RR4); details: 1 µM, assay duplicates
# Protocol: as §1, §2, §3
# MAPKAP-K2 = MAPKAP-K2 (Homo sapiens, UniProt P49137); details: 1 µM, assay duplicates
# Protocol: as §1, §2, §3
# IGF-1R = IGF-1R (Homo sapiens, UniProt P08069); details: 1 µM, assay duplicates
# Protocol: as §1, §2, §3
# MEKK1 = MEKK1 (Homo sapiens, UniProt Q13233); details: 1 µM, assay duplicates
# Protocol: as §1, §2, §3
# S6K1 = S6K1 (Homo sapiens, UniProt P23443); details: 1 µM, assay duplicates
# Protocol: as §1, §2, §3
# EPH-B3 = EPH-B3 (Homo sapiens, UniProt P54753); details: 1 µM, assay duplicates
# Sequence of EPH-B3 (P54753 34-998): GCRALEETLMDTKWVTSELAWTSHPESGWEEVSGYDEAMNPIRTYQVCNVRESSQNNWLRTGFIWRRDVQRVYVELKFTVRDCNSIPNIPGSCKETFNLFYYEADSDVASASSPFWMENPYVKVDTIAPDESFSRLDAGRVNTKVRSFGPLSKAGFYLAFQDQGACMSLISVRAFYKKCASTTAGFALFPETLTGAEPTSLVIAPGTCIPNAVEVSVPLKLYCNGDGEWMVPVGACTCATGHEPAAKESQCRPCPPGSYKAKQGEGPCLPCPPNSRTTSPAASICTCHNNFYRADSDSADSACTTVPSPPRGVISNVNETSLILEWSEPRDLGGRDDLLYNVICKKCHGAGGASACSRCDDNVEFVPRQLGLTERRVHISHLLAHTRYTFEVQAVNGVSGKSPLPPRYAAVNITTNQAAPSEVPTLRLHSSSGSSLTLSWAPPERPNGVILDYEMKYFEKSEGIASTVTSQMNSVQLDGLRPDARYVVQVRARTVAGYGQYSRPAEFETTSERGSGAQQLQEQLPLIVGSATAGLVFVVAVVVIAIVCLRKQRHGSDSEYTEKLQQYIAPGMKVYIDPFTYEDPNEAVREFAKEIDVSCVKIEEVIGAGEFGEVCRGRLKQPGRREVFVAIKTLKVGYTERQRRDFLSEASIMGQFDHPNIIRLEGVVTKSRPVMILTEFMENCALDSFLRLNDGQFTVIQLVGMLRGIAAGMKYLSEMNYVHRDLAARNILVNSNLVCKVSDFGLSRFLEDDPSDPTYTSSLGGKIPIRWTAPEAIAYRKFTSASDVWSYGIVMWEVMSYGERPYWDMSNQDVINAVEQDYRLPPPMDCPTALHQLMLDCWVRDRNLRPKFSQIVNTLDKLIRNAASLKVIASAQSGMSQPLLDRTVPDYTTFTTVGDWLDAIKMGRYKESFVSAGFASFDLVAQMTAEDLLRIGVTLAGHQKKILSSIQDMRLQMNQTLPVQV
# Protocol: as §1, §2, §3
# YES1 = YES1 (Homo sapiens, UniProt P07947); details: 1 µM, assay duplicates
# Protocol: as §1, §2, §3
# TTK = TTK (Homo sapiens, UniProt P33981); details: 1 µM, assay duplicates
# Protocol: as §1, §2, §3
# BRSK1 = BRSK1 (Homo sapiens, UniProt Q8TDC3); details: 1 µM, assay duplicates
# Sequence of BRSK1 (Q8TDC3 whole entry): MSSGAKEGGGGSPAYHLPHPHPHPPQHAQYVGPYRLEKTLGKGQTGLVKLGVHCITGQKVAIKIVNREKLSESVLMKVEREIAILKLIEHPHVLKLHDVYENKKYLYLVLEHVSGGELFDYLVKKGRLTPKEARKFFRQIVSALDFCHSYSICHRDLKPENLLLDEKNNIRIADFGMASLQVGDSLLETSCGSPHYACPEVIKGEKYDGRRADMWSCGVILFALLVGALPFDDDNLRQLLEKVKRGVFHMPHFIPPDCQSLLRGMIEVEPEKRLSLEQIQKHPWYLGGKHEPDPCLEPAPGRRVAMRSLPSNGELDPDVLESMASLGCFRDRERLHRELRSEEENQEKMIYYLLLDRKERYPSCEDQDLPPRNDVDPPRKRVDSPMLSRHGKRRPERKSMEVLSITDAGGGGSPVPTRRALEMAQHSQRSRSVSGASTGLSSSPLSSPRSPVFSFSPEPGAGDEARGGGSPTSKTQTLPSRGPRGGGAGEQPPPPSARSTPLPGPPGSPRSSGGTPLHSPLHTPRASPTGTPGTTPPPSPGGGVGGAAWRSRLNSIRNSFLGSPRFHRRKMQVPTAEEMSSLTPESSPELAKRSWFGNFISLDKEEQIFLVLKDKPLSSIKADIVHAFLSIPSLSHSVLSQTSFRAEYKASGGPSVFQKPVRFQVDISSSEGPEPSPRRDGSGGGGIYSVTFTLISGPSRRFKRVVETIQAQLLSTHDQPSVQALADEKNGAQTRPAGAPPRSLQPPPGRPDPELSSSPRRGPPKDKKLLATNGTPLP
# Protocol: as §1, §2, §3
# TrkA = TrkA (Homo sapiens, UniProt P04629); details: for TrkA inhibition: 1 μM; for TrkA % activity remaining: 1 µM, assay duplicates
# Sequence of TrkA (P04629 33-796): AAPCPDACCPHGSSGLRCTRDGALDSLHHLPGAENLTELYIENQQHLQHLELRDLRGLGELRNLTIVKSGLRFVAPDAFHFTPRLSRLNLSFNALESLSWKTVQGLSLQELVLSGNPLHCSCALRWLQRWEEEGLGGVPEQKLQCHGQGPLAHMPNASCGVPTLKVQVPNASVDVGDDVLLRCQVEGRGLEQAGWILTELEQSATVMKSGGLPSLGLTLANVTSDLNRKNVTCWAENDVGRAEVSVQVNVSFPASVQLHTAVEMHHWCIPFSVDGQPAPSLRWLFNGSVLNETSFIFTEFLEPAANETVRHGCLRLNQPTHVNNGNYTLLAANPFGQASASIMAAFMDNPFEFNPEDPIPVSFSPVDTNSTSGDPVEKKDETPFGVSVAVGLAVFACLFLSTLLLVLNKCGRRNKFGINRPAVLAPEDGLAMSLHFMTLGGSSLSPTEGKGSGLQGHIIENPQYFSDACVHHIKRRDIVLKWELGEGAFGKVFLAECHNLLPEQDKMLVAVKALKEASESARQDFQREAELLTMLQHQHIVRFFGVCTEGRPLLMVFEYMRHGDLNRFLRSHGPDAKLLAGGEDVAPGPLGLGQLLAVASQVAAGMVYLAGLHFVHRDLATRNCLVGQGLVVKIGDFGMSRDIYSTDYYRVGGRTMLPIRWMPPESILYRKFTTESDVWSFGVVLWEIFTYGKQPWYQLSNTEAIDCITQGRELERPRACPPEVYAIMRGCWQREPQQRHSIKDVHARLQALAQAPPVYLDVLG
# Protocol: as §1, §2, §3
# MST4 = MST4 (Homo sapiens, UniProt Q9P289); details: 1 µM, assay duplicates
# Protocol: as §1, §2, §3
# PRK2 = PRK2 (Homo sapiens, UniProt Q16513); details: 1 µM, assay duplicates
# Protocol: as §1, §2, §3
# CHK1 = CHK1 (Homo sapiens, UniProt O14757); details: 1 µM, assay duplicates
# Protocol: as §1, §2, §3
# MNK1 = MNK1 (Homo sapiens, UniProt Q9BUB5); details: 1 µM, assay duplicates
# Protocol: as §1, §2, §3
# NEK2a = NEK2a (Homo sapiens, UniProt P51955); details: 1 µM, assay duplicates
# Protocol: as §1, §2, §3
# MARK2 = MARK2 (Homo sapiens, UniProt Q7KZI7); details: 1 µM, assay duplicates
# Protocol: as §1, §2, §3
smiles,measurement,setting,value
Cc1nn(C)cc1-c1nc2c(-c3cnn(Cc4ccccc4)c3)c(Cl)cnc2[nH]1 [Compound 7a],MARK3 % activity remaining,MARK3,20%
same,FGF-R1 % activity remaining,FGF-R1,5%
same,PAK2 % activity remaining,PAK2,82%
same,IKKb % activity remaining,IKKb,48%
same,HER4 % activity remaining,HER4,89%
same,PAK4 % activity remaining,PAK4,23%
same,CDK2-Cyclin A % activity remaining,CDK2-Cyclin A,1%
same,CK1 % activity remaining,CK1,63%
same,IKKe % activity remaining,IKKe,53%
same,CSK % activity remaining,CSK,59%
same,Src % activity remaining,Src,9%
same,RSK2 % activity remaining,RSK2,42%
same,PAK6 % activity remaining,PAK6,42%
same,ERK2 % activity remaining,ERK2,16%
same,MST2 % activity remaining,MST2,60%
same,ERK1 % activity remaining,ERK1,28%
same,PKA % activity remaining,PKA,72%
same,MSK1 % activity remaining,MSK1,62%
same,HIPK1 % activity remaining,HIPK1,3%
same,p38d MAPK % activity remaining,p38d MAPK,18%
same,AMPK % activity remaining,AMPK,50%
same,IR % activity remaining,IR,3%
same,PLK1 % activity remaining,PLK1,75%
same,JNK1 % activity remaining,JNK1,13%
same,MLK1 inhibition,MLK1,greater than 80%
same,MLK1 % activity remaining,MLK1,3%
same,EPH-A2 % activity remaining,EPH-A2,70%
same,GSK3β inhibition,GSK3b; 1 μM,greater than 80%
same,GSK3b % activity remaining,GSK3b,2%
same,CAMKKb % activity remaining,CAMKKb,19%
same,MAPKAP-K2 % activity remaining,MAPKAP-K2,84%
same,IGF-1R % activity remaining,IGF-1R,10%
same,MEKK1 % activity remaining,MEKK1,74%
same,S6K1 % activity remaining,S6K1,18%
same,EPH-B3 % activity remaining,EPH-B3,99%
same,YES1 % activity remaining,YES1,12%
same,TTK % activity remaining,TTK,29%
same,BRSK1 % activity remaining,BRSK1,36%
same,TrkA inhibition,TrkA,greater than 80%
same,TrkA % activity remaining,TrkA,6%
same,MST4 % activity remaining,MST4,64%
same,PRK2 % activity remaining,PRK2,42%
same,CHK1 % activity remaining,CHK1,68%
same,MNK1 % activity remaining,MNK1,55%
same,NEK2a % activity remaining,NEK2a,67%
same,MARK2 % activity remaining,MARK2,31%
Cc1cc(Cn2cc(-c3c(Cl)cnc4[nH]c(-c5cn(C)nc5C)nc34)cn2)no1 [Compound 14d],MARK3 % activity remaining,MARK3,19%
same,FGF-R1 % activity remaining,FGF-R1,7%
same,PAK2 % activity remaining,PAK2,102%
same,IKKb % activity remaining,IKKb,63%
same,HER4 % activity remaining,HER4,73%
same,PAK4 % activity remaining,PAK4,25%
same,CDK2-Cyclin A % activity remaining,CDK2-Cyclin A,1%
same,CK1 % activity remaining,CK1,78%
same,IKKe % activity remaining,IKKe,3%
same,CSK % activity remaining,CSK,83%
same,Src % activity remaining,Src,8%
same,RSK2 % activity remaining,RSK2,20%
same,PAK6 % activity remaining,PAK6,45%
same,ERK2 % activity remaining,ERK2,32%
same,MST2 % activity remaining,MST2,80%
same,ERK1 % activity remaining,ERK1,52%
same,PKA % activity remaining,PKA,63%
same,MSK1 % activity remaining,MSK1,61%
same,HIPK1 % activity remaining,HIPK1,22%
same,p38d MAPK % activity remaining,p38d MAPK,41%
same,AMPK % activity remaining,AMPK,34%
same,IR % activity remaining,IR,53%
same,PLK1 % activity remaining,PLK1,115%
same,JNK1 % activity remaining,JNK1,45%
same,MLK1 inhibition,MLK1,≥ 80%
same,MLK1 % activity remaining,MLK1,8%
same,EPH-A2 % activity remaining,EPH-A2,57%
same,GSK3b % activity remaining,GSK3b,47%
same,CAMKKb % activity remaining,CAMKKb,42%
same,MAPKAP-K2 % activity remaining,MAPKAP-K2,100%
same,IGF-1R % activity remaining,IGF-1R,5%
same,MEKK1 % activity remaining,MEKK1,66%
same,S6K1 % activity remaining,S6K1,12%
same,EPH-B3 % activity remaining,EPH-B3,54%
same,YES1 % activity remaining,YES1,18%
same,TTK % activity remaining,TTK,42%
same,BRSK1 % activity remaining,BRSK1,61%
same,TrkA inhibition,TrkA,≥ 80%
same,TrkA % activity remaining,TrkA,15%
same,MST4 % activity remaining,MST4,56%
same,PRK2 % activity remaining,PRK2,43%
same,CHK1 % activity remaining,CHK1,52%
same,MNK1 % activity remaining,MNK1,64%
same,NEK2a % activity remaining,NEK2a,71%
same,MARK2 % activity remaining,MARK2,28%
